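These data come from cells grown in 96-well plates and exposed to compound for 48 hours at five concentrations. Abbreviation: GI50, concentration required for 50% inhibition of growth.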 Activity calls are given as the source filed them. Rule as the data show it: active = GI50 up to about 1.1 µM and inactive = higher.
What was measured:
Assay in all cases: NCI tumour cell line growth inhibition, 48 h
LOX IMVI = system: LOX IMVI
MCF7 = system: MCF7
HCC 2998 = system: HCC 2998
OVCAR-4 = system: OVCAR-4
EKVX = system: EKVX
DU-145 = system: DU-145
M14 = system: M14
OVCAR-8 = system: OVCAR-8
T47D = system: T47D
HOP-62 = system: HOP-62
SN12C = system: SN12C
Hs-578T = system: Hs-578T
SF-268 = system: SF-268
OVCAR-3 = system: OVCAR-3
SK-MEL-28 = system: SK-MEL-28
RPMI-8226 = system: RPMI-8226
SF-295 = system: SF-295
UACC-257 = system: UACC-257
ACHN = system: ACHN
SNB-75 = system: SNB-75
A498 = system: A498
786-0 = system: 786-0
TK-10 = system: TK-10
SR = system: SR
HT-29 = system: HT-29
MOLT-4 = system: MOLT-4
HCT-15 = system: HCT-15
NCI-H226 = system: NCI-H226
OVCAR-5 = system: OVCAR-5
SK-MEL-2 = system: SK-MEL-2
NCI-H522 = system: NCI-H522
HOP-92 = system: HOP-92
NCI-H460 = system: NCI-H460
U-251 = system: U-251
PC-3 = system: PC-3
SK-MEL-5 = system: SK-MEL-5
UO-31 = system: UO-31
IGROV-1 = system: IGROV-1
NCI-H23 = system: NCI-H23
Malme-3M = system: Malme-3M
MDA-MB-435 = system: MDA-MB-435
SW-620 = system: SW-620
CCRF-CEM = system: CCRF-CEM
NCI/ADR-RES = system: NCI/ADR-RES
MDA-N = system: MDA-N
K562 = system: K562
BT-549 = system: BT-549
COLO 205 = system: COLO 205
UACC-62 = system: UACC-62
A549 = system: A549
RXF 393 = system: RXF 393
SNB-19 = system: SNB-19
HCT-116 = system: HCT-116
SK-OV-3 = system: SK-OV-3
MDA-MB-231 = system: MDA-MB-231
CAKI-1 = system: CAKI-1
KM12 = system: KM12

CCCC(=O)OCOC(=O)N(C)/N=N/c1ccc(C(=O)OCC)cc1
GI50 (LOX IMVI): 10.7 µM (inactive)
GI50 (MCF7): 17.8 µM (inactive)
GI50 (HCC 2998): 15.2 µM (inactive)
GI50 (OVCAR-4): 39.4 µM (inactive)
GI50 (EKVX): 37.9 µM (inactive)
GI50 (DU-145): 22.2 µM (inactive)
GI50 (M14): 24.3 µM (inactive)
GI50 (OVCAR-8): 27.4 µM (inactive)
GI50 (T47D): 25.2 µM (inactive)
GI50 (HOP-62): 29 µM (inactive)
GI50 (SN12C): 27.2 µM (inactive)
GI50 (Hs-578T): 27.7 µM (inactive)
GI50 (SF-268): 28.3 µM (inactive)
GI50 (OVCAR-3): 33.7 µM (inactive)
GI50 (SK-MEL-28): 57.7 µM (inactive)
GI50 (RPMI-8226): 49.1 µM (inactive)
GI50 (SF-295): 15.8 µM (inactive)
GI50 (UACC-257): 33.7 µM (inactive)
GI50 (ACHN): 17.5 µM (inactive)
GI50 (SNB-75): 26.5 µM (inactive)
GI50 (A498): 29.2 µM (inactive)
GI50 (786-0): 17.7 µM (inactive)
GI50 (TK-10): 27.9 µM (inactive)
GI50 (SR): 23.7 µM (inactive)
GI50 (HT-29): 18.2 µM (inactive)
GI50 (MOLT-4): 39.4 µM (inactive)
GI50 (HCT-15): 19.9 µM
GI50 (NCI-H226): 92.7 µM (inactive)
GI50 (OVCAR-5): 38 µM (inactive)
GI50 (SK-MEL-2): 15.2 µM (inactive)
GI50 (NCI-H522): 17.3 µM (inactive)
GI50 (HOP-92): 19.4 µM (inactive)
GI50 (NCI-H460): 8.97 µM (inactive)
GI50 (U-251): 25.2 µM (inactive)
GI50 (PC-3): 25.1 µM (inactive)
GI50 (SK-MEL-5): 29.6 µM (inactive)
GI50 (UO-31): 22 µM (inactive)
GI50 (IGROV-1): 32 µM (inactive)
GI50 (NCI-H23): 24.3 µM (inactive)
GI50 (Malme-3M): 20.1 µM (inactive)
GI50 (MDA-MB-435): 44.1 µM (inactive)
GI50 (SW-620): 19.8 µM (inactive)
GI50 (CCRF-CEM): 37.6 µM (inactive)
GI50 (NCI/ADR-RES): 28.9 µM (inactive)
GI50 (MDA-N): 28.6 µM (inactive)
GI50 (K562): 47.6 µM (inactive)
GI50 (BT-549): 26.8 µM (inactive)
GI50 (COLO 205): 18.7 µM (inactive)
GI50 (UACC-62): 15.4 µM (inactive)
GI50 (A549): 19.3 µM (inactive)
GI50 (RXF 393): 16.3 µM (inactive)
GI50 (SNB-19): 68.9 µM (inactive)
GI50 (HCT-116): 21.1 µM (inactive)
GI50 (SK-OV-3): 41.5 µM (inactive)
GI50 (MDA-MB-231): 36.5 µM (inactive)
GI50 (CAKI-1): 43.8 µM (inactive)
GI50 (KM12): 26.4 µM (inactive)

Reference: ChEMBL document CHEMBL1201862, “PubChem BioAssay data set” (2004)
